Molecules are shown by their SMILES.

Data on two compounds can be found in patent US7795305B2, “CDDO-compounds and combination therapies thereof” (Board of Regents, The University of Texas System, priority 2000, dated 2010).

In experiment [1] the test system is HL-60 cells. Conditions: 15d-PGJ2 at 3 μM, BRL49653 at 5 μM (Tontonoz et al., 1998); cited from earlier work.
The subject of experiment [2] is HL-60 cells. Nature of the experiment: Differentiation by CD11b/CD14 flow cytometry. The conditions noted are these: 7 days. The experiment is classed as cell-based, human.
Experiment [3] concerns wt-PPARγ-transfected D9 cells. Nature of the experiment: Annexin V / cell number in wt-PPARγ-transfected D9 cells. The experiment is classed as cell-based. Conditions: 3 μM (CDDO: 5 hrs, n=6). The procedure:
(§1) Annexin V staining. Cells were washed in phosphate-buffered saline (PBS) and resuspended in 100 μl of binding buffer containing Annexin V (Roche Diagnostic Corporation, Indianapolis, Ind.). Cells were analyzed by flow cytometry after the addition of propidium iodide (PI). Annexin V binds to those cells that express phosphatidylserine on the outer layer of the cell membrane, and PI stains the cellular DNA of those cells with a compromised cell membrane. This allows for live cells (unstained with either fluorochrome) to be discriminated from apoptotic cells (stained only with annexin V) and necrotic cells (stained with both annexin and PI).
(§2) To characterize the correlation between PPARγ and caspase activation, caspase-3 levels in D9 cells transfected with wt-PPARγ were analyzed. Six different single cell-derived clones were treated with 3 μM CDDO or vehicle controls for 5 hrs. Caspase-3 cleavage was analyzed by Western blot. A decrease in pro-caspase-3 with appearance of the cleaved product was readily observed in all clones. The degree of cleavage was higher in PPARγ-transfected than in vector control cells that express endogenous PPARγ. […] These changes correlated with plasma membrane changes: vector control=47.0% annexin V-positive cells; wt-PPARγ-transfected cells=73.3±1.1% annexin V (+), n=6. […] PPARγ-transfected cells were also more sensitive to PPARγ-ligand 15d-PGJ2 (41.00% vs 16.0% annexin (+) cells at 3 μM).
as §2, with “(41.0%” for “(41.00%”
The sensitivity of leukemic cells that overexpress PPARγ to CDDO-induced killing was tested. Vector control (pcDNA) or wt-PPARγ-transfected D9 cells (2 different clones) were treated 0.2 μM of CDDO for 48 hrs. Cell viability was assessed by cell count after Trypan blue exclusion, and apoptosis determined by PS/annexin V/Propidium Iodide (PI) flow cytometry. Leukemic cells transfected with PPARγ expressed 2.8-3.7-fold higher amounts of protein compared with vector controls. […] Importantly, CDDO increased PPARγ expression in both, vector control and transfected cells. […]

Experiment [4] concerns HL-60 cells. The conditions noted are these: 15d-PGJ2 at 3 μM, BRL49653 at 5 μM (Tontonoz et al., 1998); cited from earlier work. The source holds these as a separate data set.
The subject of experiment [5] is HL-60 cells. Put plainly: Viable cell count of leukemic cells in suspension culture (Trypan blue). The experiment is classed as cell-based, human. The conditions noted are these: read-out: concentration required for 50% inhibition of HL-60 cells; PPARγ ligands compared to CDDO. The procedure:
Suspension culture of leukemic cells. Leukemic cell lines were cultured at a density of 3.0×10^5 cells/mL, and AML mononuclear cells at 5×10^5 cells/mL in the presence or absence of indicated concentrations of CDDO-Me. Appropriate amounts of DMSO (final concentration<0.05%) was included as a control. For cytotoxicity studies, 1 μM ara-C was added to the cultures.
CDDO. […] The percentage of proliferating cells were analyzed by FCM.
CDDO-Me. […] Mechanism of growth inhibition was analyzed on cell cycle and apoptosis in HL-60 cells.

The next experiment deals with leukemic cell lines. Nature of the experiment: Proliferation of leukemic cell lines (cell count and 3H incorporation). The experiment is classed as cell-based. Conditions: read-out: IC50, proliferation of leukemic cells.
The subject of a further experiment is D9 cells, vector control. Put plainly: Annexin V / cell number in D9 vector control cells. The experiment is classed as cell-based. The conditions noted are these: 3 μM (CDDO: 5 hrs). The procedure: as §1, §2
To characterize the correlation between PPARγ and caspase activation, caspase-3 levels in D9 cells transfected with wt-PPARγ were analyzed. Six different single cell-derived clones were treated with 3 μM CDDO or vehicle controls for 5 hrs. Caspase-3 cleavage was analyzed by Western blot. A decrease in pro-caspase-3 with appearance of the cleaved product was readily observed in all clones. The degree of cleavage was higher in PPARγ-transfected than in vector control cells that express endogenous PPARγ. […] These changes correlated with plasma membrane changes: vector control=47.0% annexin V-positive cells; wt-PPARγ-transfected cells=73.3±1.1% annexin V (+), n=6. […]

Experiment [6] concerns HL-60 cells. Nature of the experiment: Differentiation by CD11b/CD14 flow cytometry. The experiment is classed as cell-based, human. Conditions: 7 days, concentration 1 (column head M). The procedure:
Immunophenotyping. The PE-conjugated anti-CD11b, FITC-conjugated anti-CD14 monoclonal antibody (mAb) (Becton Dickinson) and PE-conjugated anti-CD95 mAb (PharMingen) were used at a 1/10 dilution.
Enhancement in cellular differentiation using combinations of CDDO with ATRA were tested. […] Cell differentiation was analyzed by flow cytometry (CD14/CD11b staining). […] These experiments were repeated. […]
Finally, the inventors examined if CDDO-Me combined with ATRA would enhance differentiation. […] […] Next, combined treatment with CDDO-Me and RXR-specific ligand were tested for potentiation of anti-leukemic effects.
A general note: Flow cytometry measures light scatter and fluorescence of single cells or particles in a stream.

The next experiment relates to primary AML samples. Nature of the experiment: Annexin V staining of primary AML samples exposed to PPARγ ligands. Conditions: 72 hrs; 15d-PGJ2 5 μM; BRL49653, L-805645, GW347845X 25 μM. The experiment is classed as cell-based, human. The method, then:
as §1

For a further experiment, the system named is melanoma xenografts. Conditions: oral 10-30 mg/kg daily for 3 wk or 10 mg/kg injected in the tumor; cited from earlier work.

Consider `CCCCC/C=C/C=C1/C(=O)C=C[C@@H]1C/C=C\CCCC(=O)O` [15d-PGJ2, 15-deoxyΔ^12,14PGJ2], for which, in the experiment with HL-60 cells [1], the “monocytic differentiation of HL-60 cells” value is recorded as “induce monocytic differentiation”. Besides, the CD11b % came out at 88.9% with HL-60 cells [2] (10 μM (15d-PGJ2 column head prints M)), 49.4% in the experiment on HL-60 cells [2] (concentration 3 (column head M)), 83.9% in the experiment on HL-60 cells [2] (concentration 5 (column head M)) and 34.1% in the experiment on HL-60 cells [6]. In addition, in experiment [3], the “annexin V (+) cells” value came to 41.0%. Moreover, the “killing of HL-60 cells” value in the experiment with HL-60 cells [4] was “no killing”. The IC50 with HL-60 cells [5] is 5 µM; with leukemic cell lines, 5 to 10 µM. In the experiment with D9 cells, vector control, the “annexin V-positive cells” value stood at 16.0%. For the same compound, the annexin-V-positive cells with primary AML samples was 27.7%.
With `O=C(O)c1ccc2cc(-c3ccc(O)c(C45CC6CC(CC(C6)C4)C5)c3)ccc2c1` [CD437], in the experiment with melanoma xenografts, the “growth of melanoma xenografts in vivo” value is recorded as “caused growth inhibition of melanoma xenografts”.
